We go through one compound from patent US8552002B2 (Novartis AG, priority 2004, dated 2013).

Assay [1] deals with T1, wild type Bcr-abl (Homo sapiens, UniProt P00519).
T1 construct: the major C-terminal part (exons 2-11) of the c-abl gene; expressed in transfected cells; host or cells: murine 32D (32D-p210) or Ba/F3 cells; the other entry of the earlier key: BCR (P11274, Breakpoint cluster region protein)
Briefly: Antiproliferative effect on cells expressing wild type Bcr-abl. The class given is cell-based. Particulars: cell proliferation. On the procedure:
32D-p210 cells are plated into 96 well TC plates at a density of 15,000 cells per well. 50 μL of two fold serial dilutions of the test compound (Cmax is 40 μM) are added to each well (STI571 is included as a positive control). After incubating the cells for 48 hours at 37° C., 5% CO2, 15 μL of MTT (Promega) is added to each well and the cells are incubated for an additional 5 hours. The optical density at 570 nm is quantified spectrophotometrically and IC50 values, the concentration of compound required for 50% inhibition, determined from a dose response curve.
Compounds of the invention are tested for their antiproliferative effect on Ba/F3 cells expressing either wild type or the mutant forms of BCR-Abl (G250E, E255V, T315I, F317L, M351T) that confers resistance or diminished sensitivity to STI571. The antiproliferative effect of these compounds on the mutant-BCR-Abl expressing cells and on the non transformed cells were tested at 10, 3.3, 1.1 and 0.37 μM as described above (in media lacking IL3). The IC50 values of the compounds lacking toxicity on the untransformed cells were determined from the dose response curves obtained as describe above.

Assay [2] addresses T2, CSK (Homo sapiens, UniProt P41240).
T2 construct: purchased Upstate (KinaseProfiler panel)
Briefly: Upstate KinaseProfiler radio-enzymatic filter binding assay. The class given is biochemical. To be noted: read-out: percentage inhibition of CSK. On the procedure: (§1) Compounds of the invention are assessed for their ability to inhibit individual members of a panel of kinases (a partial, non-limiting list of kinases includes: Abl, BCR-Abl, BMX, FGFR35, Lck, JNK1, JNK2, CSK, RAF, MKK6 and P38). The compounds are tested in duplicates at a final concentration of 10 μM following this generic protocol. Note that the kinase buffer composition and the substrates vary for the different kinases included in the “Upstate KinaseProfiler™” panel. Kinase buffer (2.5 μL, 10×—containing MnCl2 when required), active kinase (0.001-0.01 Units; 2.5 μL), specific or Poly(Glu4-Tyr) peptide (5-500 μM or 0.01 mg/ml) in kinase buffer and kinase buffer (50 μM; 5 μL) are mixed in an eppendorf on ice. A Mg/ATP mix (10 μL; 67.5 (or 33.75) mM MgCl2, 450 (or 225) μM ATP and 1 μCi/μl [γ-^32P]-ATP (3000 Ci/mmol)) is added and the reaction is incubated at about 30° C. for about 10 minutes. The reaction mixture is spotted (20 μL) onto a 2 cm×2 cm P81 (phosphocellulose, for positively charged peptide substrates) or Whatman No. 1 (for Poly (Glu4-Tyr) peptide substrate) paper square. The assay squares are washed 4 times, for 5 minutes each, with 0.75% phosphoric acid and washed once with acetone for 5 minutes. The assay squares are transferred to a scintillation vial, 5 ml scintillation cocktail are added and ^32P incorporation (cpm) to the peptide substrate is quantified with a Beckman scintillation counter. Percentage inhibition is calculated for each reaction.

For assay [3], the target named is T3, JNK2α2 (Homo sapiens, UniProt P45984).
T3 construct: purchased Upstate (KinaseProfiler panel)
The description is as above. The class given is biochemical. To be noted: read-out: percentage inhibition of JNK2α2. On the procedure:
as §1

Assay [4] concerns the target T4, MKK6 (Homo sapiens, UniProt P52564).
T4 construct: purchased Upstate (KinaseProfiler panel)
The description is as above. To be noted: read-out: percentage inhibition of MKK6. The class given is biochemical. On the procedure: as §1

Assay [5] deals with T5, ROS (Homo sapiens, UniProt P08922).
T5 construct: purchased Upstate (KinaseProfiler panel)
The description is as above. The class given is biochemical. Particulars: read-out: percentage inhibition of ROS. On the procedure: as §1

The target of assay [6] is T6, SAPK2α (Homo sapiens, UniProt Q16539).
T6 construct: purchased Upstate (KinaseProfiler panel)
The assay is described as above. Format: biochemical. To be noted: read-out: percentage inhibition of SAPK2α. On the procedure: as §1

The target of assay [7] is T7, SAPK2β (Homo sapiens, UniProt Q15759).
T7 construct: purchased Upstate (KinaseProfiler panel)
Described as above. The class given is biochemical. Particulars: read-out: percentage inhibition of SAPK2β. On the procedure: as §1

Assay [8] has as its target T8, Tie2 (Homo sapiens, UniProt Q02763).
T8 construct: purchased Upstate (KinaseProfiler panel)
The description is as above. Format: biochemical. To be noted: read-out: percentage inhibition of Tie2. On the procedure: as §1

In assay [9] the target is T9, TrkB (Homo sapiens, UniProt Q16620).
T9 construct: purchased Upstate (KinaseProfiler panel)
The description is as above. Format: biochemical. To be noted: read-out: percentage inhibition of TrkB. On the procedure:
as §1

Assay [10] concerns the target T10, c-RAF (Homo sapiens, UniProt P04049).
T10 construct: purchased Upstate (KinaseProfiler panel)
Described as above. The class given is biochemical. Particulars: read-out: percentage inhibition of c-RAF. On the procedure: as §1

The target of assay [11] is T11, c-SRC (Homo sapiens, UniProt P12931).
T11 construct: purchased Upstate (KinaseProfiler panel)
Described as above. Particulars: read-out: percentage inhibition of c-SRC. The class given is biochemical. On the procedure:
as §1

Assay [12] has as its target T12, lck (Homo sapiens, UniProt P06239).
T12 construct: purchased Upstate (KinaseProfiler panel)
Described as above. The class given is biochemical. Particulars: read-out: percentage inhibition of lck. On the procedure: as §1

In assay [13] the target is T13, p70S6K (Homo sapiens, UniProt P23443).
T13 construct: purchased Upstate (KinaseProfiler panel)
The assay is described as above. The class given is biochemical. To be noted: read-out: percentage inhibition of p70S6K. On the procedure: as §1

The target in assay [14] is T14, wild-type Abl (Homo sapiens, UniProt P00519).
T14 construct: purchased Upstate (KinaseProfiler panel)
The assay is described as above. Format: biochemical. Particulars: read-out: percentage inhibition of wild-type Abl. On the procedure: as §1

T1 sequence (P00519 with tags, fused parts or gaps): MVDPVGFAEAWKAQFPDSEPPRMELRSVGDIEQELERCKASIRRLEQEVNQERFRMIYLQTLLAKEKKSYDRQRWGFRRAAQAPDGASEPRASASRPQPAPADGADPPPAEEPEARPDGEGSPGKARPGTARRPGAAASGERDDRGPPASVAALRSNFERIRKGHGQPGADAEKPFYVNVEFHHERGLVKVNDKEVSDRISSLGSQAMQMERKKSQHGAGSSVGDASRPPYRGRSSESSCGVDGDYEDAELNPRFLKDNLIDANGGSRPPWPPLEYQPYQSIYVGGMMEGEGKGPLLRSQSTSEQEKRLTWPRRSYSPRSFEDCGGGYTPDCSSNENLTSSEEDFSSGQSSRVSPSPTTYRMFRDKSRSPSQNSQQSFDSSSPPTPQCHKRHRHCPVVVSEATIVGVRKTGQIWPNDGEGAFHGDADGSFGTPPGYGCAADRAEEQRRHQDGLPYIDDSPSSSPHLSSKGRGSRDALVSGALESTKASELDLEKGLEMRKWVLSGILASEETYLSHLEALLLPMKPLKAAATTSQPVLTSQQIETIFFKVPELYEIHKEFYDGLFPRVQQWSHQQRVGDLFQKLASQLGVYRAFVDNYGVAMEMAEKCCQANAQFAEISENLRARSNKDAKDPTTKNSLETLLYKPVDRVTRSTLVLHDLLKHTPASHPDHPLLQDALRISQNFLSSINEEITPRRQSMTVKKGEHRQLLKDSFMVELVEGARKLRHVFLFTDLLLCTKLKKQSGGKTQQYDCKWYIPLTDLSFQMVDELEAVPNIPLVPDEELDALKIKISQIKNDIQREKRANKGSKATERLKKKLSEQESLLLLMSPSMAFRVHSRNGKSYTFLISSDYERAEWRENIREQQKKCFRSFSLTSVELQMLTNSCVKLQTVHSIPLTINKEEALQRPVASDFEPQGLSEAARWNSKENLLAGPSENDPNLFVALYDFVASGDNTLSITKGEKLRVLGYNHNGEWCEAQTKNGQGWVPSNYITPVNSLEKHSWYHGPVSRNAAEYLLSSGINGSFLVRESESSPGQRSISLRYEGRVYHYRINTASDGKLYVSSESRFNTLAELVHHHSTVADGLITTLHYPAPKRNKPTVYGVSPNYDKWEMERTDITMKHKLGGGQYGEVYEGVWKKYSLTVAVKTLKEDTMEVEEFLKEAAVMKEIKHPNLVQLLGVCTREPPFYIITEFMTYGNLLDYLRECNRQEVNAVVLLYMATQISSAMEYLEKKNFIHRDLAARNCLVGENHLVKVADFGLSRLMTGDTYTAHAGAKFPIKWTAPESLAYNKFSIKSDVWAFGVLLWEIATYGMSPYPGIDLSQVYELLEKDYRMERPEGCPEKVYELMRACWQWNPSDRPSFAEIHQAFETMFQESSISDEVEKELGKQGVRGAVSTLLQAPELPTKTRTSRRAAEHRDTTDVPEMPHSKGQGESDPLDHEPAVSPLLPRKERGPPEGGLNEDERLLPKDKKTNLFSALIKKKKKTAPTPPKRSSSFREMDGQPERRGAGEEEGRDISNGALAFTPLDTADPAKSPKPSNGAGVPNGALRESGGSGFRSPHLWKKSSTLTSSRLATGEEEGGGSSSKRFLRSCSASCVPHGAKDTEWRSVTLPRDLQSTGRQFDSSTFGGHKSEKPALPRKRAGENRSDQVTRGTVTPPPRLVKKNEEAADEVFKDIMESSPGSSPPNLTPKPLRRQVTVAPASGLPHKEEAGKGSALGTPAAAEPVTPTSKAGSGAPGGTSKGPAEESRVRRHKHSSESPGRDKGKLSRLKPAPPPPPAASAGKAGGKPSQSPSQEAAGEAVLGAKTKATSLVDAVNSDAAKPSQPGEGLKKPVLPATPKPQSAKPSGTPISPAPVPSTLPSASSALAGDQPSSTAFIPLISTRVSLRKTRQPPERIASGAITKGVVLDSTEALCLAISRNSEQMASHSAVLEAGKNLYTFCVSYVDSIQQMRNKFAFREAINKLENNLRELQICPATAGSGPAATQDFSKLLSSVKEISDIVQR
T7 sequence (Q15759 whole entry): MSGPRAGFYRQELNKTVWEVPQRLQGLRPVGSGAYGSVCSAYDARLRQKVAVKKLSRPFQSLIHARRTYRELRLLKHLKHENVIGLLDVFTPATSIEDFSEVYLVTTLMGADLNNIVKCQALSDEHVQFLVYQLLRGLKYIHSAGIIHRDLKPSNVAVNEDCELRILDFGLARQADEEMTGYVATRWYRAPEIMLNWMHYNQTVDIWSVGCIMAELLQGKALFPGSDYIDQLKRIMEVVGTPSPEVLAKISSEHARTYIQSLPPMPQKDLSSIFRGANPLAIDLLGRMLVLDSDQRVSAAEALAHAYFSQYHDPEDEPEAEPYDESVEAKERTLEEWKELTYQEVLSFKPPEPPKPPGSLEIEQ
T3 sequence (P45984 whole entry): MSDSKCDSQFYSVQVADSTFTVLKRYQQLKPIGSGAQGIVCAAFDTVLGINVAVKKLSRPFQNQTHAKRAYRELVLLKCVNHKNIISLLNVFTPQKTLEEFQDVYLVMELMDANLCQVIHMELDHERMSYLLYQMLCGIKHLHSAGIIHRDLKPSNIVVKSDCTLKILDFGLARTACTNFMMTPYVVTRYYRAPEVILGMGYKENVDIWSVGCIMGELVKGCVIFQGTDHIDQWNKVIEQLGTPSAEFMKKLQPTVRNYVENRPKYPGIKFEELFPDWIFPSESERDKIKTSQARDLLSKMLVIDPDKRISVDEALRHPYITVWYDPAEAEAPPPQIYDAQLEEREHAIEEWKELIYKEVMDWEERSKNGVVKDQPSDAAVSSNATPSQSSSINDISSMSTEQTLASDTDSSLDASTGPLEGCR
T10 sequence (P04049 whole entry, species assumed): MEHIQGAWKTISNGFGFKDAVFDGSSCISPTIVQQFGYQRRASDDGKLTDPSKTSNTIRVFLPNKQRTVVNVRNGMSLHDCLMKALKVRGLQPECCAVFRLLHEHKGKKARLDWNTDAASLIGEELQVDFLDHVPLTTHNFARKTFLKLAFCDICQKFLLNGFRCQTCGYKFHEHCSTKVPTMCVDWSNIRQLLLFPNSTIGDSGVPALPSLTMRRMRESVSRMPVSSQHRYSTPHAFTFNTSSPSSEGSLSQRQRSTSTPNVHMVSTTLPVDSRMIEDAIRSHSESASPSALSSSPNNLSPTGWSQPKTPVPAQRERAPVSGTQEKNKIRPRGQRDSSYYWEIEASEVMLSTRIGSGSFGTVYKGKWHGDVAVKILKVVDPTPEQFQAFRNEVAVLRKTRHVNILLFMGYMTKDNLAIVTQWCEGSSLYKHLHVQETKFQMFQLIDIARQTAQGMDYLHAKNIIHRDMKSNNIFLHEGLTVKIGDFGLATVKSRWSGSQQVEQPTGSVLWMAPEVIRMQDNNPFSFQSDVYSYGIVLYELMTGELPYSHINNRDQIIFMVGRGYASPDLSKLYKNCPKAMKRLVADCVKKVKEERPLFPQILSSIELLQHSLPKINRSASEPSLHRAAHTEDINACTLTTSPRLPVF
T13 sequence (P23443 whole entry): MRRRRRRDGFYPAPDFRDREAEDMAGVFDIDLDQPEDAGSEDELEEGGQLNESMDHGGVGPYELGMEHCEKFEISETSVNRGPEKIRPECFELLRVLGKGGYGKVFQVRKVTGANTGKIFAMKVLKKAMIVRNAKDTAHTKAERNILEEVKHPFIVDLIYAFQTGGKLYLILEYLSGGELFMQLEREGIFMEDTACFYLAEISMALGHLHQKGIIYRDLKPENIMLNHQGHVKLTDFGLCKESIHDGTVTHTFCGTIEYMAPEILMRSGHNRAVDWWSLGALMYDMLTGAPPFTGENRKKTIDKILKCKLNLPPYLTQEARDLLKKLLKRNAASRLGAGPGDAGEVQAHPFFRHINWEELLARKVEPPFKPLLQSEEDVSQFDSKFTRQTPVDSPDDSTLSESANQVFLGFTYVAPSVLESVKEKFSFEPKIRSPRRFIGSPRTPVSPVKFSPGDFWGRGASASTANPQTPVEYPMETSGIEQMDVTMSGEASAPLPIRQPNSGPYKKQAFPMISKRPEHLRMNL
T12 sequence (P06239 whole entry, species assumed): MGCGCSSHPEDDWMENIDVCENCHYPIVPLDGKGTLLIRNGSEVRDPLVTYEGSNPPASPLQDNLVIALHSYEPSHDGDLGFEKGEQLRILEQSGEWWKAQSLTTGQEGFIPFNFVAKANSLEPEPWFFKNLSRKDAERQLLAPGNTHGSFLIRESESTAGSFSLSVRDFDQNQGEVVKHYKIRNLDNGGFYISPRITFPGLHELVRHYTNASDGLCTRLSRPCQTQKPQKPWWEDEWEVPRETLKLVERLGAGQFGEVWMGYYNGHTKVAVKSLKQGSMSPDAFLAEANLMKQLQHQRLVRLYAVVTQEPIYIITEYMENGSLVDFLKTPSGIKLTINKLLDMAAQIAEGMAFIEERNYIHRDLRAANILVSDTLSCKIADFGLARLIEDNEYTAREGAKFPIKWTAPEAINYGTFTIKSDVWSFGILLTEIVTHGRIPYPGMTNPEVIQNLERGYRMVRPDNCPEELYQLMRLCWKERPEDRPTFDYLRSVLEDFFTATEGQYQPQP
T4 sequence (P52564 whole entry, species assumed): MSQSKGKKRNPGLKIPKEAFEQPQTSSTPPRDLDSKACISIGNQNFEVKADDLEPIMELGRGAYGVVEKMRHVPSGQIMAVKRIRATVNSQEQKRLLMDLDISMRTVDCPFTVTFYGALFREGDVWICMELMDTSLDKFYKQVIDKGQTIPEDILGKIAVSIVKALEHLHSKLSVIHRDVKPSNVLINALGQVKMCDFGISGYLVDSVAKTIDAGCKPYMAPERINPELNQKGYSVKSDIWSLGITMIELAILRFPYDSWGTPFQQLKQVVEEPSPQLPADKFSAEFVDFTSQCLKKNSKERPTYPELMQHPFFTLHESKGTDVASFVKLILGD

In [1], `Cc1ccc(NC(=O)c2cccc(C(F)(F)F)c2)cc1NC(=O)N(CCCN1CCCC1=O)c1cc(N)ncn1` [Example 215, N-(3-{3-(6-Amino-pyrimidin-4-yl)-3-[3-(2-oxo-pyrrolidin-1-yl)-propyl]-ureido}-4-methyl-phenyl)-3-trifluoromethyl-benzamide] showed an IC50 of 10 nM. Also, the inhibition at 10 µM in assay [2] stood at 97%; in assay [3] it was 93%; in [4], 88%; in assay [5] it was 95%; in [6], 99%; in assay [7] it was 99%. Also, the inhibition at 10 µM in assay [8] came out at 100%; in assay [9], 99%; in [10], 99%; in assay [11], 100%; in [12] it was 100%; in assay [13], 81%. Besides, the inhibition at 10 µM in [14] came to 99%.
